Source: US8716315B2, “Analogs of thalidomide as potential angiogenesis inhibitors” (The United States of America as represented by the …, priority 2001, dated 2014)

Key:
rat aortic rings = test: Anti-angiogenic activity utilizing rat aortic rings; assay type: cell-based, rat (Sprague-Dawley); conditions: daily dosage of 100 μM, five-day treatment, image analysis vs DMSO control rings; for inhibition at 100 µM: Rattus norvegicus, 120 h, read-out: angiogenesis inhibition activity
Text: The efficacy of selected thalidomide analogs of the present invention was studied by five-day treatment of rat aortic rings (utilizing Sprague-Dawley rats available from Charles River Labs) with varied doses of the analogs. A DMSO control was utilized (FIG. 1). The results, determined using image analysis comparing control rings versus the treated rings (using NIM Image software), of the studies are as follows: […]

HUVEC = HUVEC MTT assay; assay type: cell-based; conditions: for inhibition, growth curves treated vs control wells: at about 72 hours
Method: HUVEC MTT assays were performed for the selected thalidomide analogs of the present invention to determine a rough estimate of the efficacy of such compounds in the inhibition of angiogenesis. For the MTT assay, 1.0 to 2.5×10^3 cells per well were plated in 96-well plates in 0.1 ml medium, in triplicate. After 24 hours, the cells were exposed to treatment for 5 days. One plate was analyzed every 24 hours by the addition of 20 μL of 5 mg/ml MTT solution (available from Sigma of St. Louis, Mo.) in PBS, to each well for 4 hours. The MTT solution was aspirated and 170 μL DMSO was added to each well to dissolve the formazan crystals. The absorbance at 540 nm was measured using a Biokinetics plate reader (available from Bio-Tek Instruments of Winooski, Vt.). Triplicate wells were assayed for each condition. The assay protocol described herein stems from Kruger et al., a protein kinase C inhibitor, inhibits endothelial cell proliferation and angiogenic hypoxic response, Invasion and Metastasis, 18(4): 209-218 (incorporated herein by reference).
The following results for the selected compounds were determined measured utilizing growth curves comparing control wells to treated wells using the MTT assays.

Toxicology screen = conditions: i.p., single dose
human saphenous veins = test: Anti-angiogenic activity utilizing human saphenous vein; assay type: cell-based; conditions: 336 h, daily dosages of 100 μM, 14 day treatment, image analysis, read-out: angiogenesis inhibition activity level
Method: The efficacy of 2-(1-hydroxymethyl-2,6-dioxo-piperidin-3-yl)-1,3-dihydro-2H-isoindole-1,3-dione (CPS11) was studied by 14 day treatment of human saphenous veins (obtained through an IRB-approved protocol, Surgery Brand NCI) with 100 μM doses of the analog. A CAI, carboxyamido-triazole, 12 μg/ml control was utilized.

## O=C1NC(=O)C(N2C(=O)c3ccccc3C2=O)CC1O (centres unmarked) [CPS3, 2-(5-hydroxy-2,6-dioxo-piperidin-3-yl)-1H-isoindole-1,3[2H]-dione]
other
  melting point: 195 to 230 °C
Rat aortic rings
  inhibition at 100 µM: ~50%
HUVEC; 10 μM
  inhibition (cytostatic activity), growth curves treated vs control wells: No cytostatic activity
HUVEC; 100 μM
  inhibition (cytostatic activity), growth curves treated vs control wells: No cytostatic activity

## O=C1CCC(N2C(=O)c3ccccc3C2=O)C(=O)N1CO (centres unmarked) [CPS11, 2-(1-hydroxymethyl-2,6-dioxo-piperidin-3-yl)-1,3-dihydro-2H-isoindole-1,3-dione]
Rat aortic rings
  inhibition at 100 µM: 90%
Toxicology screen; 10 mg/kg
  toxicology screen outcome: safe
Toxicology screen; 100 mg/kg
  toxicology screen outcome: safe
Toxicology screen; 10 and 100 mg/kg
  sedation noted: Some amount of sedation
HUVEC; 10 μM
  inhibition, growth curves treated vs control wells: about 60%
HUVEC; 100 μM
  inhibition, growth curves treated vs control wells: > 90%
Human saphenous veins
  inhibition at 100 µM: 90%

## Cc1ccc(C)c2c1C(=O)N(c1ccc(F)cc1F)C2=O [CPS42, 2-(2,4-difluorophenyl)-4,7-dimethyl-1H-isoindole-1,3(2H)-dione]
Toxicology screen; 200 mg/kg
  sedation noted: Slight sedation
  time after injection at which sedation was noted: ≤ 15 min
  toxicology screen outcome: safe
HUVEC; 10 μM
  inhibition (cytostatic activity), growth curves treated vs control wells: no such activity
HUVEC; 100 μM
  inhibition (cytostatic activity), growth curves treated vs control wells: about 44%

## CCC1(N2C(=O)c3ccccc3C2=O)C(=O)NC(=O)N(C2CCCCC2)C1=O (centres unmarked) [CPS44, 1-cyclohexyl-5-ethyl-5-phthalimidobarbituric acid]
Rat aortic rings
  angiogenesis inhibition activity: No inhibition of angiogenesis
HUVEC; 10 μM
  inhibition (cytostatic activity), growth curves treated vs control wells: no such activity
HUVEC; 100 μM
  inhibition (cytostatic activity), growth curves treated vs control wells: about 50%

## CCC1(N2C(=O)c3c(F)c(F)c(F)c(F)c3C2=O)C(=O)NC(=O)N(c2ccccc2)C1=O (centres unmarked) [CPS45, 5-ethyl-1-phenyl-5-(tetrafluorophthalimido)barbituric acid]
Rat aortic rings
  inhibition at 100 µM: 90%
Toxicology screen; 200 mg/kg
  time to death after treatment: ≤ 2.5 h
  toxicology screen outcome: lethal dose
HUVEC; 10 μM
  inhibition (cytostatic activity), growth curves treated vs control wells: > 90%
HUVEC; 100 μM
  inhibition (cytostatic activity), growth curves treated vs control wells: > 90%

## O=C1c2c(F)c(F)c(F)c(F)c2C(=O)N1c1c[nH]c(=O)[nH]c1=O [CPS48, 5-(tetrafluorophthalimido)pyrimidine-2,4(1H,3H)-dione]
Rat aortic rings
  inhibition at 100 µM: 90%
HUVEC; 10 μM
  inhibition (cytostatic activity), growth curves treated vs control wells: about 85%
HUVEC; 100 μM
  inhibition (cytostatic activity), growth curves treated vs control wells: about 85%

## O=C1c2c(F)c(F)c(F)c(F)c2C(=O)N1c1ccc(F)cc1F [CPS49, 2-(2,4-difluoro-phenyl)-4,5,6,7-tetrafluoro-1H-isoindole-1,3(2H)-dione]
Rat aortic rings
  angiogenesis inhibition activity: extensive angiogenesis inhibition activity
Toxicology screen; 200 mg/kg
  time to death after treatment: ≤ 18 h
  toxicology screen outcome: lethal dose
HUVEC; 10 μM
  inhibition (cytostatic activity), growth curves treated vs control wells: no such activity
HUVEC; 100 μM
  inhibition (cytostatic activity), growth curves treated vs control wells: about 90%
